Data set [1] concerns the target T1, human Kv1.5 potassium channel (Homo sapiens, UniProt P22460).
T1 construct: Error-free parts of these clones were then ligated together to form a complete cDNA construct; expressed in transfected cells
Put plainly: Whole cell patch clamp, inhibition of Kv1.5 current in CHO cells. The format is cell-based. The settings on record: for IC50: Kv1.5, whole cell patch clamp, approx. values, read-out: 50% Channel Inhibition (IC50). The protocol:
(§1) 4. Electrophysiological Studies
(§2) Electrophysiological recordings of native channels in cells and cell lines, cloned and expressed channels in cells (e.g., CHO cells) as well as isolated cardiac myocytes were performed using the whole cell configuration of the patch clamp technique (Hamill et al., Pflugers Archiv 391:85, 1981). Cell lines were prepared as described above (cloning, etc.). Rat and human cardiac myocytes were isolated using the methods described in Castle and Slawsky, J. Pharmacol. Exp. Ther. 264:1450, 1993 and Wang et al., Circ. Res., 73:1061, 1993, respectively. Cells were plated on glass coverslips at a density of 2×10^4 cells/coverslip and used within 24-48 hours for cultured cell lines and within 6 hours for isolated cardiac myocytes. The coverslips were placed in a small chamber (volume ~200 μl) on the mechanical stage of an inverted microscope and perfused (2 ml/min) with extracellular recording solution. Drug application was achieved via a series of narrow-bore glass capillary tubes (inner diameter ~100 μm) positioned approximately 200 μm from the cell. Application of voltage-clamp pulses, data acquisition and the analysis were controlled by a 75 MHz Pentium computer using pCLAMP 6.0 software (Axon Instruments Inc. Foster City, Calif.).
500 ms voltage clamp steps from -80 mV to +60 mV were applied to individual cells every 20 seconds for Kv1.5 and every 60 seconds for Kv1.3.

The next data set has as its system human T lymphocytes. The data set can be described thus: T-lymphocyte proliferation assay (PHA-stimulated 3H-thymidine incorporation). The format is cell-based. Particulars: compared to PHA-only controls; 10 μM compound 4, 1 nM margatoxin, 50 nM charybdotoxin; PHA 1.25 or 2.5 μg/ml. (In general: Dividing cells build labelled thymidine or BrdU into new DNA.)
Data set [2] addresses T2, human Kv1.3 potassium channel (Homo sapiens, UniProt P22001). Put plainly: 86Rubidium efflux from CHO cell monolayers expressing Kv1.3. The format is cell-based. The settings on record: for inhibition of 60 mM KCl evoked increase in 86Rb efflux rate (Kv1.3): preexposure to 5 nM margatoxin or 10 μM compound 4, 15 minute period, n=4.
Method: Stable clones were tested for voltage-gated potassium channel expression using a ^86 rubidium (^86 Rb) ion flux assay (see below for methodology).
(§4) 2. ^86 Rubidium Efflux From Cell Monolayers
CHO cells stably transfected with either human Kv1.5 or Kv1.3 as well as nontransfected cells were grown to approximately 90% confluence in 24 well tissue culture plates. Tissue culture growth medium was then removed and replaced with 1 ml of Iscoves modified DMEM containing ^86 Rb at a concentration of 1 μCi/ml and incubated for three hours at 37° C. to permit intracellular uptake of the isotope. At the end of the incubation period, the ^86 Rb solution was aspirated and the cells washed three times with Earls Balanced Salt Solution (EBSS). The cells were then incubated for 15 minutes at room temperature in 0.6 ml/well of EBSS or EBSS containing the compounds to be tested. At the end of this period, a 0.3 ml sample was taken for analysis to determine basal efflux of ^86 Rb. To each well was then added 0.3 ml of a modified high KCl EBSS, containing 125 mM KCl (NaCl replaced by KCl; final KCl concentration in each well was 65 nM) and the compounds to be tested. The high KCl concentration was utilized to depolarize the cells to membrane potentials that would activate Kv1.3 and Kv1.5 channels. After a 15 minute incubation, another 0.3 ml sample was taken for analysis. Finally 0.3 ml of 0.2% sodium dodecyl sulfate in EBSS was added to each well to lyse the cells. Of this lysate 0.3 ml was taken for analysis to determine final cell content of ^86 Rb. Samples were counted in a Wallac Microbeta Liquid Scintillation counter by Cerenkov emission. Efflux was expressed as a percentage of the initial cell content of ^86 Rb.
(§5) Values are means ±s.e. (n=4) of the amount of ^86 Rb released in a 15 minute period and are expressed as a percentage of the initial cell content.
Data set [3] has as its target T2, human Kv1.3 potassium channel. Put plainly: Fluorescence measurement of cell membrane potential (DiBac4(3)) in CHO cells expressing Kv1.3. The settings on record: 10 μM; compared with margatoxin; CHO cells expressing human Kv1.3. The format is cell-based.
Method: Fluorescence Measurement of Cell Membrane Potential
CHO cells stably transfected with genes encoding human voltage gated potassium channels were grown to 80-90% confluency in 96 well tissue culture plates. On the experimental day, they were repeatedly contacted with a modified EBSS (116 mM NaCl, 5.4 mM KCl, 1.8 mM CaCl2, 0.8 mM MgCl2, 20 mM HEPES, 5 nM glucose; pH 7.4, 300 mOsm) plus 5 μM of the voltage-sensitive oxonol dye, bis-(1,3-dibutylbarbituric acid)trimethine oxonol (DiBac4 (3)). Dibac4 (3) binds to intracellular proteins in a membrane potential-dependent process, changing the effective concentration of fluorescing molecules. […] The cells in each well were then incubated in EBSS+5 μM DiBac4 (3) at 37° C. for 30 minutes. The 96 well plate was then placed in a 35° C. temperature controlled chamber within a laser based fluorescence imaging plate reader (NovelTech Inc.). Data were collected every 60 seconds for periods ranging from 20 to 40 min. To permit comparative quantification of the magnitude of drug induced changes in the fluorescence signal, changes were compared to the addition of EBSS+5 μM DiBac4 (3) without drug and EBSS+5 μM DiBac4 (3)+30 mM KCl without drug, and expressed as a percentage of the increase in fluorescence induced by exposure of the cells to 30 mM KCl. […]
A further data set relates to rat cardiac myocytes. The data set can be described thus: Action potential prolongation in rat cardiac myocytes. The format is cell-based. The settings on record: 1 μM, 2 min application. As to the method:
as §1, §2
(§3) A functional consequence of potassium channel inhibition in the heart is a prolongation of the action potential duration. […]

The target of data set [4] is T2, human Kv1.3 potassium channel. Put plainly: Whole cell patch clamp, inhibition of Kv1.3 current in CHO cells. The format is cell-based. Particulars: 10 μM, 5 min preincubation; steps -80 mV to +60 mV every 60 seconds. The protocol: as §1
as §2, with “Calif.). […]” for “Calif.).”
(The patch-clamp technique gives a direct electrical read-out from membranes.)

The subject of data set [5] is IKur in human atrial myocytes. The data set can be described thus: Inhibition of IKur currents in isolated human atrial myocytes. The format is cell-based. The protocol: as §1, §2
The next data set has as its system human atrial myocytes. Put plainly: Action potential prolongation in isolated human atrial myocytes. The format is cell-based. As to the method:
as §1, §2, §3

A further data set concerns nontransfected CHO cells. The data set can be described thus: Fluorescence measurement of cell membrane potential (DiBac4(3)) in non-transfected CHO cells. The format is cell-based, Chinese hamster. Particulars: 10 μM; CHO-WT.
In data set [6] the target is T1, human Kv1.5 potassium channel. The data set can be described thus: 86Rubidium efflux from CHO cell monolayers expressing Kv1.5. The format is cell-based. Particulars: 10 μM compound 4; 15 minute period; n=4.
Method: as §4
CHO cells stably transfected with either human Kv1.5 or Kv1.3 as well as nontransfected cells were grown to approximately 90% confluence in 24 well tissue culture plates. Tissue culture growth medium was then removed and replaced with 1 ml of Iscoves modified DMEM containing ^86 Rb at a concentration of 1 μCi/ml and incubated for three hours at 37° C. to permit intracellular uptake of the isotope. At the end of the incubation period, the ^86 Rb solution was aspirated and the cells washed three times with Earls Balanced Salt Solution (EBSS). The cells were then incubated for 15 minutes at room temperature in 0.6 ml/well of EBSS or EBSS containing the compounds to be tested. At the end of this period, a 0.3 ml sample was taken for analysis to determine basal efflux of ^86 Rb. To each well was then added 0.3 ml of a modified high KCl EBSS, containing 125 mM KCl (NaCl replaced by KCl; final KCl concentration in each well was 65 nM) and the compounds to be tested. […] Samples were counted in a Wallac Microbeta Liquid Scintillation counter by Cerenkov emission. Efflux was expressed as a percentage of the initial cell content of ^86 Rb.
as §5
Another data set deals with human T-lymphocytes. The data set can be described thus: Toxicity to human T-lymphocytes (cell viability). Particulars: 10 μM, 90 hours of exposure. The format is cell-based.

The term IC50 denotes the point on the concentration scale where inhibition reaches its midpoint. As usually defined, the inhibition is the change of the read-out against control, counted positive when it falls.

T2 sequence (P22001 whole entry): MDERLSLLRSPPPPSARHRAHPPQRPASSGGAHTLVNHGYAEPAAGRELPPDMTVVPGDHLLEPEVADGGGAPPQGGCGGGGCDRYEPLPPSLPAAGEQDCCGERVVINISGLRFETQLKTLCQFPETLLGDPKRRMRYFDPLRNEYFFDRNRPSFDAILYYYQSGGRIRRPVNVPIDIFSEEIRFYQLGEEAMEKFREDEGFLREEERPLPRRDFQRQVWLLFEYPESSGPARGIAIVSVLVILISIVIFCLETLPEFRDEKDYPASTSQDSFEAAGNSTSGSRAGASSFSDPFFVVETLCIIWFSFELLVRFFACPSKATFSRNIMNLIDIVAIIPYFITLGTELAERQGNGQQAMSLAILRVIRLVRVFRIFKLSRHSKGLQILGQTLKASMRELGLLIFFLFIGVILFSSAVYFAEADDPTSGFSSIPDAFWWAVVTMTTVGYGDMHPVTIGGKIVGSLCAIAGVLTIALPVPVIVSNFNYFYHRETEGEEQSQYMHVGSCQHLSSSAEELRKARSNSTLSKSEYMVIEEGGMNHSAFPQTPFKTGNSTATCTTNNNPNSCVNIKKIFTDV
T1 sequence (P22460 whole entry): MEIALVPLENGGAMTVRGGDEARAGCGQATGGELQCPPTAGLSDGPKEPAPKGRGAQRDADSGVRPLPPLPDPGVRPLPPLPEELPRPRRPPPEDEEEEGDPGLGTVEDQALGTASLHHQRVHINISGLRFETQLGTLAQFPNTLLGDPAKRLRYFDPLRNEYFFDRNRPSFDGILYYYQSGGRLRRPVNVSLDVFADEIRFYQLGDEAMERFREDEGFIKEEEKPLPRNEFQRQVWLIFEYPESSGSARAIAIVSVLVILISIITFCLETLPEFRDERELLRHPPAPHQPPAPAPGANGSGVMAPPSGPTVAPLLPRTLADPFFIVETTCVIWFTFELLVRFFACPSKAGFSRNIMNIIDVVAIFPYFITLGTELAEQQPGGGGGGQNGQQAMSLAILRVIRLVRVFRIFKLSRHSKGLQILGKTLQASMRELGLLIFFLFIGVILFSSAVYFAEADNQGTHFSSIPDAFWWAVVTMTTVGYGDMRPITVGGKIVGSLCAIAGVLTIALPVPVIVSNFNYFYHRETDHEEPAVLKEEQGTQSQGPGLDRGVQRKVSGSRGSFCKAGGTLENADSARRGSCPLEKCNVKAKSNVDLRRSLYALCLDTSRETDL
Method for human T lymphocytes: Lymphocyte Proliferation Studies
(§6) A T-lymphocyte proliferation assay was performed using human peripheral T-lymphocytes isolated by centrifugation on lymphocyte separation medium (Organon Teknika) followed by adherence of non-T cells on nylon wool. […] 100 μl of cells/well was dispensed into a 96-well plate. Cells were stimulated with phytohemoagglutinin (1.25 or 2.5 μg/ml final concentration) in the presence or absence of various antagonists for 3 days. On the fourth day, cells were pulsed with [^3 ]thymidine for an additional 18 hours and harvested on glass fiber filtermats with extensive washing. Mats were counted in a Wallac Microbeta liquid scintillation counter using melt-on scintillant. Additional wells were counted at the end of the 18 hour period to determine if the drug treatments caused cellular toxicity.
Method for human T-lymphocytes: as §6

Take `CCc1ccc(S(=O)(=O)NC2c3cc(NC(=O)c4ccccc4F)ccc3CC2O)cc1` (stereo not drawn) [Compound 17]: in [1], the IC50 was more than 1000 nM.
On to charybdotoxin, for which, in the data set on human T lymphocytes, the “inhibition of lymphocyte proliferation” value is “inhibited lymphocyte proliferation to a similar extent”.
For `CCc1ccc(S(=O)(=O)NC2c3cc(NC(=O)C4CC5CCC4CC5)ccc3CC2O)cc1` (stereo not drawn) [Compound 13], the IC50 in data set [1] is approximately 1000 nM.
Take `CCCCCOc1ccc(C(=O)Nc2ccc3c(c2)C(NS(=O)(=O)c2ccc(CC)cc2)C(O)C3)cc1` (stereo not drawn) [Compound 15]: in [1], the IC50 was approximately 1000 nM.
“margatoxin (TIINVKCTSPKQCLPPCKAQFGQSAGAKCMNGKCKCYPH; UniProt P40755 1-39, looked up)”: in data set [2] (margatoxin present, four positive Kv1.3 clones), the “inhibition of KCl-stimulated 86Rb efflux” value is “approximately 95%”. In [2], the “inhibition of 60 mM KCl evoked increase in 86Rb efflux rate (Kv1.3)” value is listed as “completely abolished”. The “inhibition of lymphocyte proliferation” value with human T lymphocytes is given as “inhibited lymphocyte proliferation to a similar extent”.
As for `CCc1ccc(S(=O)(=O)NC2c3cc(NC(=O)c4cccc(C)c4)ccc3CC2O)cc1` (stereo not drawn) [Compound 2], the IC50 in [1] is approximately 1000 nM.
On to `COc1cccc(C(=O)Nc2ccc3c(c2)C(NS(=O)(=O)c2ccccc2)C(O)C3)c1` (stereo not drawn) [Compound 12], for which, in data set [1], the IC50 was more than 1000 nM.
The same measure, in the same setting: under `CCc1ccc(S(=O)(=O)NC2c3cc(NC(=O)CCC4CCCC4)ccc3CC2O)cc1` (stereo not drawn) [Compound 11] stands approximately 1000 nM.
As to `COc1ccc(S(=O)(=O)NC2c3cc(NC(=O)c4cccc(OC)c4)ccc3CC2O)cc1` (stereo not drawn) [Compound 10], the IC50 in [1] is more than 1000 nM.
Consider `COc1cccc(C(=O)Nc2ccc3c(c2)C(NS(=O)(=O)c2ccc4ccccc4c2)C(O)C3)c1` (stereo not drawn) [Compound 16], for which the concentration for half-maximal inhibition (IC50) in [1] was approximately 1000 nM.
Consider `CCc1ccc(S(=O)(=O)N[C@H]2c3cc(NC(=O)c4cccc(OC)c4)ccc3C[C@@H]2O)cc1` (relative stereo) [Compound 4, 1-(p-ethylphenyl)sulfimide-2-hydroxy-6-(m-methoxy)benzamido-indane], for which the “cell membrane depolarization (Kv1.3)” value in [3] is listed as “produced a depolarization similar in magnitude to that induced by the Kv1.3-specific blocking toxin margatoxin”. Moreover, the “inhibition of potassium currents (Kv1.5)” value in data set [1] (10 μM, 5 min preincubation, steps -80 mV to +60 mV every 20 seconds) is given as “inhibition of potassium currents”. Besides, the IC50 in data set [1] is approximately 100 nM. For the same compound, the “prolongation of the action potential (rat)” value with rat cardiac myocytes is recorded as “prolongs the action potential”. The “inhibition of 60 mM KCl evoked increase in 86Rb efflux rate (Kv1.3)” value in [2] is given as “completely abolished”. Moreover, the “inhibition of potassium currents (Kv1.3)” value in data set [4] is “inhibition of potassium currents”. For the same compound, in data set [5], the inhibition at 1 µM is more than 50%. In the data set with human atrial myocytes, this compound yielded an activation at 1 µM of more than 50%. Moreover, the “compound-induced depolarization (nontransfected cells)” value in the data set on nontransfected CHO cells is “absent”. The “inhibition of KCl evoked increase in 86Rb efflux rate (Kv1.5)” value in data set [6] was “completely inhibited”. For the same compound, in the data set with human T lymphocytes, the “inhibition of lymphocyte proliferation” value is “inhibited lymphocyte proliferation to a similar extent”. The “cell viability / toxicity to human T-lymphocytes” value with human T-lymphocytes is “no decrease in cell viability”.
